Results from patent US9856242B2, “5-fluoro-N-(pyridin-2-yl)pyridin-2-amine derivatives containing a sulfone group” (Bayer Pharma Aktiengesellschaft, priority 2014, dated 2018).

Experiments:
[1] = target: T1, CDK9/CycT1 (Homo sapiens, UniProt P50750); experiment: CDK9/CycT1 high ATP kinase assay (Method 1b, TR-FRET, 2 mM ATP); assay type: biochemical; settings: for IC50: Method 1b, 2 mM ATP; for Selectivity high ATP CDK9/high ATP CDK2: according to Methods 1b and 2b (ratio of high ATP CDK2 IC50 to high ATP CDK9 IC50)
T1 construct: Recombinant full-length His-tagged human CDK9 and CycT1; His; purchased Invitrogen PV4131; host or cells: insect cells
Description: 1b. CDK9/CycT1 High ATP Kinase Assay
CDK9/CycT1-inhibitory activity of compounds of the present invention at a high ATP concentration after preincubation of enzyme and test compounds was quantified employing the CDK9/CycT1 TR-FRET assay as described in the following paragraphs.
Recombinant full-length His-tagged human CDK9 and CycT1, expressed in insect cells and purified by Ni-NTA affinity chromatography, were purchase from Invitrogen (Cat. No PV4131). As substrate for the kinase reaction biotinylated peptide biotin-Ttds-YISPLKSPYKISEG (C-terminus in amid form) was used which can be purchased e.g. form the company JERINI peptide technologies (Berlin, Germany). For the assay 50 n1 of a 100 fold concentrated solution of the test compound in DMSO was pipetted into a black low volume 384 well microtiter plate (Greiner Bio-One, Frickenhausen, Germany), 2 μl of a solution of CDK9/CycT1 in aqueous assay buffer [50 mM Tris/HCl pH 8.0, 10 mM MgCl2, 1.0 mM dithiothreitol, 0.1 mM sodium ortho-vanadate, 0.01% (v/v) Nonidet-P40 (Sigma)] were added and the mixture was incubated for 15 min at 22° C. to allow pre-binding of the test compounds to the enzyme before the start of the kinase reaction. Then the kinase reaction was started by the addition of 3 μl of a solution of adenosine-tri-phosphate (ATP, 3.3 mM=>final conc. in the 5 μl assay volume is 2 mM) and substrate (1.67 μM=>final conc. in the 5 μl assay volume is 1 μM) in assay buffer and the resulting mixture was incubated for a reaction time of 25 min at 22° C. The concentration of CDK9/CycT1 was adjusted depending of the activity of the enzyme lot and was chosen appropriate to have the assay in the linear range, typical concentrations were in the range of 0.5 μg/mL. The reaction was stopped by the addition of 5 μl of a solution of TR-FRET detection reagents (0.2 μM streptavidine-XL665 [Cisbio Bioassays, Codolet, France] and 1 nM anti-RB(pSer807/pSer811)-antibody from BD Pharmingen [#558389] and 1.2 nM LANCE EU-W1024 labeled anti-mouse IgG antibody [Perkin-Elmer, product no. AD0077]) in an aqueous EDTA-solution (100 mM EDTA, 0.2% (w/v) bovine serum albumin in 100 mM HEPES/NaOH pH 7.0).
The resulting mixture was incubated 1 h at 22° C. to allow the formation of complex between the phosphorylated biotinylated peptide and the detection reagents. Subsequently the amount of phosphorylated substrate was evaluated by measurement of the resonance energy transfer from the Eu-chelate to the streptavidine-XL. Therefore, the fluorescence emissions at 620 nm and 665 nm after excitation at 350 nm was measured in a HTRF reader, e.g. a Rubystar (BMG Labtechnologies, Offenburg, Germany) or a Viewlux (Perkin-Elmer). The ratio of the emissions at 665 nm and at […] was taken as the measure for the amount of phosphorylated substrate. The data were normalised (enzyme reaction without inhibitor=0% inhibition, all other assay components but no enzyme=100% inhibition).

[2] = target: T2, CDK2/CycE (Homo sapiens, UniProt P24941); experiment: CDK2/CycE high ATP kinase assay (Method 2b, TR-FRET, 2 mM ATP); assay type: biochemical
T2 construct: GST; purchased ProQinase GmbH (Freiburg, Germany); host or cells: insect cells (Sf9)
Description: 2b. CDK2/CycE High ATP Kinase Assay
CDK2/CycE-inhibitory activity of compounds of the present invention at 2 mM adenosine-tri-phosphate (ATP) was quantified employing the CDK2/CycE TR-FRET (TR-FRET=Time Resolved Fluorescence Energy Transfer) assay as described in the following paragraphs.
Recombinant fusion proteins of GST and human CDK2 and of GST and human CycE, expressed in insect cells (Sf9) and purified by Glutathion-Sepharose affinity chromatography, were purchase from ProQinase GmbH (Freiburg, Germany). As substrate for the kinase reaction biotinylated peptide biotin-Ttds-YISPLKSPYKISEG (C-terminus in amid form) was used which can be purchased e.g. form the company JERINI peptide technologies (Berlin, Germany). […]
The resulting mixture was incubated 1 h at 22° C. to allow the formation of complex between the phosphorylated biotinylated peptide and the detection reagents. Subsequently the amount of phosphorylated substrate was evaluated by measurement of the resonance energy transfer from the Eu-chelate to the streptavidine-XL. Therefore, the fluorescence emissions at 620 nm and 665 nm after excitation at 350 nm wer measured in a TR-FRET reader, e.g. a Rubystar (BMG Labtechnologies, Offenburg, Germany) or a Viewlux (Perkin-Elmer). […]

T1 sequence (P50750 whole entry): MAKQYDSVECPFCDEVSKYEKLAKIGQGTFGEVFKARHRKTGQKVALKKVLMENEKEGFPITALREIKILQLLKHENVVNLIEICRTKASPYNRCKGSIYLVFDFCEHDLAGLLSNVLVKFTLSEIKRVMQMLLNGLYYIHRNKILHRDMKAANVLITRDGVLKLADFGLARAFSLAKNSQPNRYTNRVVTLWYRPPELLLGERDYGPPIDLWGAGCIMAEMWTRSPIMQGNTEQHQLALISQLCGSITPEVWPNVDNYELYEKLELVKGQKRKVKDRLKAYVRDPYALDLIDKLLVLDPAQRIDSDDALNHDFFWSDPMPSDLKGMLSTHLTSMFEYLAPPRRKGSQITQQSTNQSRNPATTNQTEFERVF
T1 sequence (O60563 whole entry partner): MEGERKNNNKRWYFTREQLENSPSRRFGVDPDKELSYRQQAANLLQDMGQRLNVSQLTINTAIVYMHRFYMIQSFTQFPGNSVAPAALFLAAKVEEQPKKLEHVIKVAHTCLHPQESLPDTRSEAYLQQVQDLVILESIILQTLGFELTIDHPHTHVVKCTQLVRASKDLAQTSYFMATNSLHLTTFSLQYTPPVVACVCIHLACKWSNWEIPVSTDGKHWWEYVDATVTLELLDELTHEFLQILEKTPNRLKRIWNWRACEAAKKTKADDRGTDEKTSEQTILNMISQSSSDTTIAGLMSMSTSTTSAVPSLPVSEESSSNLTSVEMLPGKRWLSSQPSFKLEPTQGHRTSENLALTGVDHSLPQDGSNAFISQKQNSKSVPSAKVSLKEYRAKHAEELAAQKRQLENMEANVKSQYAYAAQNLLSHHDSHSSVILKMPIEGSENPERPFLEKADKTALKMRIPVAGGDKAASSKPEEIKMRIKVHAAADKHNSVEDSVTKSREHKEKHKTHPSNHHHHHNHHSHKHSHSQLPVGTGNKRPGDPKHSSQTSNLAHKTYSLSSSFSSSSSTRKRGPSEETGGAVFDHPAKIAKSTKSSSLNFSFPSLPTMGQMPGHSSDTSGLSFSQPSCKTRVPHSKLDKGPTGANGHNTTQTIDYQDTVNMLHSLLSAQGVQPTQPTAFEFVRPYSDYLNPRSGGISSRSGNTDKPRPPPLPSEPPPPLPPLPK

Row | IC50 [1] [nM] | Selectivity high ATP CDK9/high ATP CDK2 [1] | IC50 [2] [nM] | SMILES
1 | 1 | 517 | 517 | CS(=O)(=O)Cc1cc(F)nc(Nc2cc(-c3ccc(F)c4ccoc34)c(F)cn2)c1 [Example 2, 5-Fluoro-4-(4-fluoro-1-benzofuran-7-yl)-N-{6-fluoro-4-[(methylsulfonyl)methyl]pyridin-2-yl}pyridin-2-amine]
2 | 0.9 | – | – | Cc1cc(CS(C)(=O)=O)cc(Nc2cc(-c3ccc(F)c4ccoc34)c(F)cn2)n1 [Example 3, 5-Fluoro-4-(4-fluoro-1-benzofuran-7-yl)-N-{6-methyl-4-[(methylsulfonyl)methyl]pyridin-2-yl}pyridin-2-amine]
3 | 2 | 268 | 535 | CS(=O)(=O)Cc1ccnc(Nc2cc(-c3ccc(F)c4ccoc34)c(F)cn2)c1 [Example 1, 5-Fluoro-4-(4-fluoro-1-benzofuran-7-yl)-N-{4-[(methylsulfonyl)methyl]pyridin-2-yl}pyridin-2-amine]
4 | 4 | – | – | CS(=O)(=O)Cc1cc(Nc2cc(-c3ccc(F)c4ccoc34)c(F)cn2)nc(C(F)(F)F)c1 [Example 4, 5-Fluoro-4-(4-fluoro-1-benzofuran-7-yl)-N-{4-[(methylsulfonyl)methyl]-6-(trifluoromethyl)pyridin-2-yl}pyridin-2-amine]
5 | 2 | – | – | CS(=O)(=O)Cc1ccnc(Nc2cc(-c3cccc4ccoc34)c(F)cn2)c1 [Example 5, 4-(1-Benzofuran-7-yl)-5-fluoro-N-{4-[(methylsulfonyl)methyl]pyridin-2-yl}pyridin-2-amine]
